{"source": "patent US4328242A", "about": "“α-(3,4,5-Trimethoxyhenzoyl)thiopropionyl-glycine” (Ausoria Farmaceutici S.r.l., priority 1980, dated 1982)", "key": {"Acute toxicity in mice": {"assay": "Acute toxicity in mice", "assay_type": "in vivo", "settings": "mouse, in vivo; for mortality at 240 h: read-out: % Death; for LD50 at 240 h: 10 days observation, probits, read-out: DL50 mg/kg (Confidential Limits)"}, "Mice": {"tested_on": "Mice", "assay": "Acute toxicity in mice", "assay_type": "in vivo", "settings": "20 tested"}, "rabbits": {"tested_on": "rabbits", "assay": "Subchronic toxicity, rectal route", "assay_type": "in vivo", "settings": "eight consecutive weeks"}, "dogs": {"tested_on": "dogs", "assay": "Chronic toxicity in dogs", "assay_type": "in vivo", "settings": "24 weeks, 125 and 250 mg/kg oral, 200 mg/kg by inhalation", "method": "The chronic toxicity of TBPG has been investigated in rats and dogs treated for a period of 24 weeks with 125 mg/kg and 250 mg/kg by the oral route and 200 mg/kg by inhalation."}, "[1]": {"tested_on": "albino Sprague-Dawley rats", "assay": "Toxicity in the fetus, rats", "assay_type": "in vivo", "settings": "daily oral and subcutaneous, 250 and 500 mg/kg, four weeks prior to coupling and twenty days of gestation", "description": "Toxicity in the fetus of TBPG has been studied in albino Sprague-Dawley rats and in New Zealand rabbits. In the case of rats both male and female, the treatment has been initiated four weeks prior to coupling and then has been continued only in the females during the twenty days of gestation.\nIn the case of female rabbits, the treatment has been carried out during the twenty eight days of gestation."}, "guinea pigs": {"tested_on": "guinea pigs", "assay": "Protective activity in subacute bronchitis induced by inhalation of citric acid", "assay_type": "in vivo", "settings": "7.5% citric acid inhalation, oral, rectal or inhalation, 50 and 200 mg/kg, two weeks"}, "rats [2]": {"tested_on": "rats", "assay": "Protective action on chronic bronchitis induced by inhalation of SO2", "assay_type": "in vivo", "settings": "SO2 aerosol, 100 and 400 mg/kg oral, rectal and inhalation, two weeks", "method": "Bronchopulmonary lesions were induced in the animals by aerosolization of SO2. The animals were then treated for two weeks with TBPG in the dosage of 100 and 400 mg/kg by the oral route, rectal route and by inhalation."}, "rats [3]": {"tested_on": "rats", "assay": "Bronchosecretolithic activity in rats (sodium fluorescine method)", "assay_type": "in vivo", "settings": "300 mg/kg intraperitoneally", "method": "The secretolithic activity of TBPG has been determined in comparison to α-mercaptopropionylglycine by administering 300 mg/kg of the substance intraperitonally and comparing with 135 mg/kg of α-mercaptopropionylglycine administered also intraperitoneally. The doses are equimolar. The method is based on the use of sodium fluorescine described by H. M. Mawatari (Experimental Studies on the Expectorant Action of Several Drugs, Kogoshima Daigakeu Igakeu Zasshi 27, 561, 1976)."}, "rats [4]": {"tested_on": "rats", "assay": "Regenerative action in partial hepatectomy", "assay_type": "in vivo", "settings": "partial hepatectomy (70% excision), 200 and 400 mg/kg oral, six days"}, "[5]": {"biological_target": "T1, glutathione peroxidase (GSHP) (Homo sapiens, UniProt P07203)", "T1 sequence (P07203 1-203)": "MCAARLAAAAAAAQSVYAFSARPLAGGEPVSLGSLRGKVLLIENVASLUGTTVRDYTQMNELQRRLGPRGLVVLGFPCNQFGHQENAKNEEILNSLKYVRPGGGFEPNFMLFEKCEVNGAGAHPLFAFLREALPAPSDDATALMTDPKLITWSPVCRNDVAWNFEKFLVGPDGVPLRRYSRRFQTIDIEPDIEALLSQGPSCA", "assay": "Action on the glutathione peroxidase (GSHP)", "assay_type": "biochemical", "settings": "system glutathione/NADPH/GSH-reductase/cumene hydroperoxide; read-out: apparent Ki", "description": "The experiment has been carried out for the purpose of determining the inhibitory activity if any of TBPG with respect to GSHP, an enzyme well known connected with phlogistic processes.\nThe results have been obtained using the system glutathione/NADPH/GSH-reductase/cumene hydroperoxide and have shown that TBPG is capable of exerting an inhibitory activity on GSHP with an apparent Ki 5.4.10^-3 molar."}, "[6]": {"assay_type": "in vivo", "settings": "rats, oral route, equimolar doses"}, "[7]": {"assay": "Isothermic (accelerated) stability according to the method of Garret, TLC", "assay_type": "physicochemical", "method": "The tests of accelerated stability have been carried out with the substance in powder form, that is in glass vials, hermetically closed with a plastic screw cap and also with the substance dissolved in water, that is 500 mg in 10 cc in a transparent glass container of 20 cc capacity closed with a plastic screw cap.\nThe production of impurities, if any, due to degradation of the substance, has been determined by means of TLC."}, "Stability to moisture": {"assay": "Stability to moisture", "assay_type": "physicochemical", "settings": "open vials, 90% relative humidity, a month", "method": "Samples of TBPG and MPG have been maintained in open vials at room temperature under conditions of 90% relative humidity and at 50° C. always with 90% relative humidity. After a month of exposure, the following observations have been made."}, "Solubility": {"assay": "Solubility", "assay_type": "physicochemical", "description": "The structure of the compound is confirmed by analytical and spectroscopic analysis, specifically IR and NMR spectra. The compound is in the form of a white micro-cyrstalline powder, odorless and almost tasteless. It is soluble in a saturated solution of sodium bicarbonate and in other basic solutions. The substance is insoluble in water, soluble in warm ethanol."}, "[8]": {"assay": "Clinical tolerance with respect to gastric reactions", "settings": "in vivo"}}, "note": "Read-outs that look alike come from different tables or passages of the source."}
{"smiles": "COc1cc(C(=O)SC(C)C(=O)NCC(=O)O)cc(OC)c1OC", "note": "(stereo not drawn) [TBPG, α-(3,4,5-trimethoxybenzoyl)thiopropionylglycine]", "values": [{"measurement": "mortality at 240 h", "setting": "Acute toxicity in mice; ip, 1500 mg/kg", "value": 0, "unit": "%"}, {"measurement": "mortality at 240 h", "setting": "Acute toxicity in mice; ip, 2000 mg/kg", "value": 40, "unit": "%"}, {"measurement": "mortality at 240 h", "setting": "Acute toxicity in mice; ip, 2500 mg/kg", "value": 50, "unit": "%"}, {"measurement": "mortality at 240 h", "setting": "Acute toxicity in mice; ip, 3000 mg/kg", "value": 65, "unit": "%"}, {"measurement": "mortality at 240 h", "setting": "Acute toxicity in mice; ip, 3500 mg/kg", "value": 90, "unit": "%"}, {"measurement": "LD50 at 240 h", "setting": "Acute toxicity in mice; ip, 95% limits (2192-2963)", "value": 2530, "unit": "mg/kg"}, {"measurement": "mortality at 240 h", "setting": "Acute toxicity in mice; po, orally, 3000 mg/kg", "value": 5, "unit": "%"}, {"measurement": "mortality at 240 h", "setting": "Acute toxicity in mice; po, orally, 4000 mg/kg", "value": 30, "unit": "%"}, {"measurement": "mortality at 240 h", "setting": "Acute toxicity in mice; po, orally, 5000 mg/kg", "value": 50, "unit": "%"}, {"measurement": "mortality at 240 h", "setting": "Acute toxicity in mice; po, orally, 6000 mg/kg", "value": 75, "unit": "%"}, {"measurement": "mortality at 240 h", "setting": "Acute toxicity in mice; po, orally, 7000 mg/kg", "value": 90, "unit": "%"}, {"measurement": "LD50 at 240 h", "setting": "Acute toxicity in mice; po, orally, 95% limits (4539-5254)", "value": 4860, "unit": "mg/kg"}, {"measurement": "No. of Animals Dead", "setting": "Mice; i.p., 1500 mg/kg", "value": 0}, {"measurement": "No. of Animals Dead", "setting": "Mice; i.p., 2000 mg/kg", "value": 8}, {"measurement": "No. of Animals Dead", "setting": "Mice; i.p., 2500 mg/kg", "value": 10}, {"measurement": "No. of Animals Dead", "setting": "Mice; i.p., 3000 mg/kg", "value": 13}, {"measurement": "No. of Animals Dead", "setting": "Mice; i.p., 3500 mg/kg", "value": 18}, {"measurement": "No. of Animals Dead", "setting": "Mice; orally, 3000 mg/kg", "value": 1}, {"measurement": "No. of Animals Dead", "setting": "Mice; orally, 4000 mg/kg", "value": 6}, {"measurement": "No. of Animals Dead", "setting": "Mice; orally, 5000 mg/kg", "value": 10}, {"measurement": "No. of Animals Dead", "setting": "Mice; orally, 6000 mg/kg", "value": 15}, {"measurement": "No. of Animals Dead", "setting": "Mice; orally, 7000 mg/kg", "value": 18}, {"measurement": "hematochemical data, hepatic and renal functions, autopsies and macro/microscopic controls of the main organs", "setting": "rabbits; 400 mg/kg per day", "value": "have not shown any variations from the normal"}, {"measurement": "behavior and body growth of the animals", "setting": "rabbits; two suppositories per day equal to 400 mg/kg", "value": "has not caused any irregularities"}, {"measurement": "chronic toxicity (symptoms, behavior, deaths, body growth, hematology, hepatic and renal functions, organs)", "setting": "dogs", "value": "totally innocuous"}, {"measurement": "toxicity in the fetus (deformation, number and weight of living offspring)", "setting": "[1]", "value": "has not induced any deformation in the fetus and has not affected the number and the weight of the living offspring"}, {"measurement": "mortality index", "setting": "guinea pigs", "value": "substantially reduced"}, {"measurement": "protective action on bronchial conditions (macro and micro examination of the lungs)", "setting": "guinea pigs", "value": "effective protective action in proportion to the dose"}, {"measurement": "protection of the bronchi and lungs (bronchopulmonary lesions and mortality)", "setting": "rats [2]", "value": "significant action in the protection of the bronchi and lungs"}, {"measurement": "bronchosecretolithic activity", "setting": "rats [3]", "value": 34.4, "unit": "%"}, {"measurement": "regeneration of the hepatic tissue", "setting": "rats [4]", "value": "favoring the regeneration of the hepatic tissue in statistically significant manner"}, {"measurement": "Ki", "setting": "[5]", "value": 5.4, "unit": "mM"}, {"measurement": "concentration in the kidney", "setting": "[6]", "value": "high concentrations in the kidney"}, {"measurement": "distribution in the organs", "setting": "[6]", "value": "sufficiently homogenous"}, {"measurement": "content in the lungs with respect to α-mercaptopropionylglycine", "setting": "[6]; statistically significant", "value": "substantially higher content in the lungs"}, {"measurement": "Chromatographic Impurities", "setting": "[7]; Powder, 60°, 320 hours", "value": "Absent"}, {"measurement": "Chromatographic Impurities", "setting": "[7]; Powder, 70°, 120 hours", "value": "Absent"}, {"measurement": "Chromatographic Impurities", "setting": "[7]; Powder, 70°, 240 hours", "value": "Absent"}, {"measurement": "Chromatographic Impurities", "setting": "[7]; Powder, 80°, 45 hours", "value": "Absent"}, {"measurement": "Chromatographic Impurities", "setting": "[7]; Powder, 80°, 180 hours", "value": "Absent"}, {"measurement": "Chromatographic Impurities", "setting": "[7]; Solution (500 mg in 10 cc water), 60°, 0 hours", "value": "Absent"}, {"measurement": "Chromatographic Impurities", "setting": "[7]; Solution (500 mg in 10 cc water), 60°, 320 hours", "value": "Absent"}, {"measurement": "degraded at 640 h", "setting": "[7]; Solution (500 mg in 10 cc water), 60°, 640 hours, read-out: Chromatographic Impurities", "value": 0.5, "unit": "%"}, {"measurement": "degraded at 960 h", "setting": "[7]; Solution (500 mg in 10 cc water), 60°, 960 hours, read-out: Chromatographic Impurities", "value": 0.7, "unit": "%"}, {"measurement": "degraded at 1280 h", "setting": "[7]; Solution (500 mg in 10 cc water), 60°, 1280 hours, read-out: Chromatographic Impurities", "value": 1.2, "unit": "%"}, {"measurement": "degraded at 1600 h", "setting": "[7]; Solution (500 mg in 10 cc water), 60°, 1600 hours, read-out: Chromatographic Impurities", "value": 1.3, "unit": "%"}, {"measurement": "Chromatographic Impurities", "setting": "[7]; Solution (500 mg in 10 cc water), 70°, 180 hours", "value": "Absent"}, {"measurement": "degraded at 240 h", "setting": "[7]; Solution (500 mg in 10 cc water), 70°, 240 hours, read-out: Chromatographic Impurities", "value": 1.1, "unit": "%"}, {"measurement": "degraded at 480 h", "setting": "[7]; Solution (500 mg in 10 cc water), 70°, 480 hours, read-out: Chromatographic Impurities", "value": 1.2, "unit": "%"}, {"measurement": "Chromatographic Impurities", "setting": "[7]; Solution (500 mg in 10 cc water), 80°, 45 hours", "value": "Absent"}, {"measurement": "degraded at 90 h", "setting": "[7]; Solution (500 mg in 10 cc water), 80°, 90 hours, read-out: Chromatographic Impurities", "value": 1.2, "unit": "%"}, {"measurement": "degraded at 120 h", "setting": "[7]; Solution (500 mg in 10 cc water), 80°, 120 hours, read-out: Chromatographic Impurities", "value": 1.3, "unit": "%"}, {"measurement": "stability to moisture", "setting": "Stability to moisture; 50° C.", "value": "slight yellow color, but no degradation products"}, {"measurement": "stability to moisture", "setting": "Stability to moisture; room temperature (t.a.)", "value": "no decomposition"}, {"measurement": "solubility", "setting": "Solubility; saturated solution of sodium bicarbonate and other basic solutions", "value": "soluble"}, {"measurement": "solubility", "setting": "Solubility; warm ethanol", "value": "soluble"}, {"measurement": "solubility", "setting": "Solubility; water", "value": "insoluble"}, {"measurement": "clinical tolerance with respect to gastric reactions", "setting": "[8]", "value": "optimum clinical tolerance"}]}
